# Assay results published in ChEMBL document CHEMBL1201862, “PubChem BioAssay data set” (2004).
# The source made the active and inactive calls.
# Columns and labels:
# [1] = biological target: Potassium voltage-gated channel subfamily KQT member 2 (Rattus norvegicus, UniProt O88943); assay: blockers of KCNQ2 channel current – cell-based, automated electrophysiology, set II, rat KCNQ2, dose response (AID 588637); format: functional
# [2] = viability loss of HMLE_sh_eGFP cells – cell-based, luminescence, counter-screen for HMLE_sh_ECad selective toxicity project, dose response (AID 463074); format: functional, Homo sapiens;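 note: HMLE human mammary epithelial cells expressing control shRNA against eGFP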
# [3] = Luminescence Cell-Based Dose Retest to Confirm Inhibitors of Cancer Stem Cells. [Related pubchem assays (depositor defined):AID2717, AID2721]; format: functional; conditions: Homo sapiens
# [4] = biological target: T1, Delta-type opioid receptor (Homo sapiens, UniProt P41143); assay: HTS Image-Based Screen for Antagonists of the DOR Receptor. [Related pubchem assays (depositor defined):AID1777, AID1785, AID1786, AID2133]; format: functional
# T1 sequence (P41143 whole entry): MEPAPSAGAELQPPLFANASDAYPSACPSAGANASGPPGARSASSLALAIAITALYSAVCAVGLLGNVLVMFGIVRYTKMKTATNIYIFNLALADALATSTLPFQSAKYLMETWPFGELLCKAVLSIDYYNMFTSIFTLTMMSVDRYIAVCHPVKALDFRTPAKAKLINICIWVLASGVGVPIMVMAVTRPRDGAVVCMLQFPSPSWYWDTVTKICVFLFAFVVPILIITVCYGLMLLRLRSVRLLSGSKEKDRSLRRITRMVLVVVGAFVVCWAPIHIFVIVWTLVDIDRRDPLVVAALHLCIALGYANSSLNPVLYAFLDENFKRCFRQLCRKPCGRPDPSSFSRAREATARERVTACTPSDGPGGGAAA
# [5] = biological target: T1, Delta-type opioid receptor; assay: HTS Image-Based Screen for Agonists of the DOR Receptor. [Related pubchem assays (depositor defined):AID1777, AID1786, AID2133]; format: functional
# [6] = biological target: Heat shock protein HSP 90-alpha (Homo sapiens, UniProt P07900); format: functional, organism-based
# [7] = fluconazole-exposed Candida albicans growth modulators – fluorescence, retest, confirmation (AID 2467); format: functional, cell-based
# [8] = biological target: ATP-dependent molecular chaperone HSP82 (Candida albicans (strain WO-1) (Yeast), UniProt C4YTQ8); assay: steroid-induced GRE reporter decrease in yeast – S. cerevisiae, luminescence, Hsp90 inhibitor project, dose response (AID 2400); format: functional, cell-based;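 note: beta-galactosidase luminescence from glucocorticoid response element reporter as proxy for Hsp90 function; inhibitor potency where signal loss means Hsp90 inhibition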
# [9] = system: HEK293; assay: EBV LMP1 TES2 canonical NF-kB signalling blockers – cell-based, HEK293, luciferase, cherry-pick, dose response (AID 588343); format: functional; conditions: Homo sapiens
# [10] = biological target: T2, Kappa-type opioid receptor (Homo sapiens, UniProt P41145); format: functional
# T2 sequence (P41145 whole entry): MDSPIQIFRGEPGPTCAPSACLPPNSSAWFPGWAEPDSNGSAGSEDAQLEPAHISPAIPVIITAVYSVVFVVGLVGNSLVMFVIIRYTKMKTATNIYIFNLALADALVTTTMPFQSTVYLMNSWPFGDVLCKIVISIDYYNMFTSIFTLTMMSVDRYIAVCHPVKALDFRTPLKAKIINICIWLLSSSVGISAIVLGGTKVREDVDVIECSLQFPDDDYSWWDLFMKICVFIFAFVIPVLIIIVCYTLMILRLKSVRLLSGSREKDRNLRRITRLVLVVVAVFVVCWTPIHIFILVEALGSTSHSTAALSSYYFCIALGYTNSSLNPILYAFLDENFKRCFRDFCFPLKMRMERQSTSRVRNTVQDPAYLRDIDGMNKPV
# [11] = biological target: Beta-galactosidase (Escherichia coli, UniProt Q8VNN2); format: functional
# [12] = system: Streptococcus; assay: GAS UMAA2166 growth inhibition – luminescence, BacTiterGlo, counter-screen for streptokinase expression inhibitor project, dose response (AID 1915); format: functional, organism-based;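 note: potency for reduction of bacterial viability or growth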
# [13] = system: Streptococcus sp. 'group A'; assay: Streptococcus pyogenes SK(-)GAS viability under kanamycin – luminescence, BacTiterGlo, confirmation, counter-screen for streptokinase expression inhibitor project, dose response (AID 1900); format: functional, organism-based
# [14] = NIH-3T3 fibroblast cytotoxicity, dose response, cytotoxicity control, cell-based, fluorescence, Alamar Blue, secondary assay (AID 2327); format: functional;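 note: NIH-3T3 mouse fibroblasts cultured with fluconazole at 8 µg/mL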
# [15] = biological target: T2, Kappa-type opioid receptor; format: functional; remark: listed apart in the source
# [16] = biological target: T3, Serine/threonine-protein phosphatase (Candida dubliniensis (strain CD36 / CBS 7987 / NCPF 3949 / NRRLY-17841) (Yeast), UniProt B9W6M3); assay: blockers of CaCl2-induced CDRE-lacZ signaling – S. cerevisiae, luminescence, secondary, dose response (AID 2388); format: functional, cell-based;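 note: yeast reporter cells carrying a calcineurin-responsive lacZ construct stimulated with calcium chloride; luminescent beta-galactosidase reporter signal in whole cells rather than isolated phosphatase activity; potency for inhibition where a drop in reporter signal means calcineurin blockade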
# T3 sequence (B9W6M3 whole entry): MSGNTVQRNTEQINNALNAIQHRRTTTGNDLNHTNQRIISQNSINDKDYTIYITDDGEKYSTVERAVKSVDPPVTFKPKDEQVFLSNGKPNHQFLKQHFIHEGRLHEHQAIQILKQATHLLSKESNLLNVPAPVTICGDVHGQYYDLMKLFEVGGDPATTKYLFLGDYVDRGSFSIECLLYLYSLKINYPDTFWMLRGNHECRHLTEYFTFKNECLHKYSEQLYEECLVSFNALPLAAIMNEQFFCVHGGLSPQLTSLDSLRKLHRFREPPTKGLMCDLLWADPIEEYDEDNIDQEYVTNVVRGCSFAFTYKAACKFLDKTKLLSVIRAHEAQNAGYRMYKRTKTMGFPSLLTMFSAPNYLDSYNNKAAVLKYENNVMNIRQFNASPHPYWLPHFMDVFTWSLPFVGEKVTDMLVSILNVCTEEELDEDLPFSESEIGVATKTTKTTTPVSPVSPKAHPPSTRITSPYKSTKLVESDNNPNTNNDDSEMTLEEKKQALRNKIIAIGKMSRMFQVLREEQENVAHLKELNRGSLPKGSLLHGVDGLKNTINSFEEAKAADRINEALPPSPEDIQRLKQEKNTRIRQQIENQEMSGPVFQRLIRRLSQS
# [17] = biological target: Mu-type opioid receptor (Homo sapiens, UniProt P35372); assay: HTS Image-Based Screen for Agonists of the MOR Receptor. [Related pubchem assays (depositor defined):AID1777, AID1785, AID1786, AID2133]; format: functional;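 note: imaging of beta-arrestin GFP recruitment into spots after receptor activation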
# Mu-type opioid receptor, sequence (P35372 whole entry): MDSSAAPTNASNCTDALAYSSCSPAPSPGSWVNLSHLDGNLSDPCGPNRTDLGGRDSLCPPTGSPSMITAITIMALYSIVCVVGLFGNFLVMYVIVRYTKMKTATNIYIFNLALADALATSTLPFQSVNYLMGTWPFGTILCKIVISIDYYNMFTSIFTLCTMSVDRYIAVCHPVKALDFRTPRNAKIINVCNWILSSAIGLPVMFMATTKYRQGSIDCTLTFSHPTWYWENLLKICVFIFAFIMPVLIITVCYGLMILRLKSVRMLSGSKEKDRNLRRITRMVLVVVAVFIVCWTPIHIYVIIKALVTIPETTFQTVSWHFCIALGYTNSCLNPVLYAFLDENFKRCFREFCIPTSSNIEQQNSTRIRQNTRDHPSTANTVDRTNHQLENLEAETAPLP
# [18] = restored growth of temperature-sensitive Burl-1 yeast – whole organism, S. cerevisiae, Burl-1 ts mutant, luminescence, counter-screen for SUMOylation pathway inhibitor project, dose response (AID 463199); format: functional
# [19] = cells; conditions: A549
# [20] = biological target: Beta Lactamase (Pseudomonas aeruginosa, UniProt Q932Y6);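 note: confirmatory high-throughput screen measuring VIM-2 metallo-beta-lactamase inhibition by epi-absorbance in dose response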
# Beta Lactamase, sequence (Q932Y6 whole entry): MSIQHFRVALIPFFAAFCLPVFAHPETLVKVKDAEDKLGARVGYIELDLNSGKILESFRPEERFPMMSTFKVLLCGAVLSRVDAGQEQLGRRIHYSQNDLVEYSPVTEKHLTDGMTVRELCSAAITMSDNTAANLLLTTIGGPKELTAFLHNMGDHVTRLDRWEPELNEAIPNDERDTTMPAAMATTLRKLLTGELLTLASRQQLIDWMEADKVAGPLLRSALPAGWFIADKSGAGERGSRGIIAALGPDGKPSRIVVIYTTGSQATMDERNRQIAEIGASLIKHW
# [21] = rescue of ΔF508 CFTR function, airway epithelium – human bronchial epithelial cells, plate reader, cherry-pick, two tests, dose response (AID 743267); format: functional, cell-based
# [22] = biological target: T4, Insulin-degrading enzyme (Homo sapiens, UniProt P14735); assay: recombinant IDE activation, cell-free – biochemical, fluorescence polarization, counter-screen for IDE activator project, dose response (AID 588681)
# T4 sequence (P14735 whole entry): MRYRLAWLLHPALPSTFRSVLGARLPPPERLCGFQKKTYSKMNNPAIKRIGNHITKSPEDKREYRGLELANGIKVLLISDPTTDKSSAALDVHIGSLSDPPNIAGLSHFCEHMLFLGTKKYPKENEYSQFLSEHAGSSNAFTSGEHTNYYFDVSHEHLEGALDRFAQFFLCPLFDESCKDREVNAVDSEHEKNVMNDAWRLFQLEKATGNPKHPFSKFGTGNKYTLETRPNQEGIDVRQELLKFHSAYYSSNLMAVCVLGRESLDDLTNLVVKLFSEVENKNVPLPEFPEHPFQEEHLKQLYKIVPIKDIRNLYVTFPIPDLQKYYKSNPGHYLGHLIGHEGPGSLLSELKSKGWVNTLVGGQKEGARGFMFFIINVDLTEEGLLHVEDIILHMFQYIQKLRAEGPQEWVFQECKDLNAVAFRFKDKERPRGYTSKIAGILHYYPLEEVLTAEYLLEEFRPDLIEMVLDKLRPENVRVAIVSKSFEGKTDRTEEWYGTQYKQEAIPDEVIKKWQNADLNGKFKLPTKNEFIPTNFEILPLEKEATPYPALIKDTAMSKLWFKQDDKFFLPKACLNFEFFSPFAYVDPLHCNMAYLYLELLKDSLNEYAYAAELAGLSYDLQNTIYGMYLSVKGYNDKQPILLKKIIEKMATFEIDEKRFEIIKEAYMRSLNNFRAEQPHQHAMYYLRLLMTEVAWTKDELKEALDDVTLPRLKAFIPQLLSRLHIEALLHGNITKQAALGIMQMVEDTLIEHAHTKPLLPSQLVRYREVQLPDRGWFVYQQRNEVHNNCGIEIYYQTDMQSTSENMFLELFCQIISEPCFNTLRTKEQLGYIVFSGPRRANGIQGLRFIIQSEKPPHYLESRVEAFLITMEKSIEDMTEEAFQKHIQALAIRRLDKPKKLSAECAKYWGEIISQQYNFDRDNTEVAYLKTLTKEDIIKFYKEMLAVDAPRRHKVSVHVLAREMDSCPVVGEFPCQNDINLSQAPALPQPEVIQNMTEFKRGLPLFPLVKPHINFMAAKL
# [23] = system: HEK293; assay: membrane integrity loss in HEK cells – cell-based, fluorescence, cytotoxicity control for IDE activator project, dose response (AID 588440); format: functional; conditions: Homo sapiens;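 note: cytotoxicity by LDH release measuring loss of membrane integrity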
# [24] = biological target: ORF 73 (Human herpesvirus 8, UniProt O40947); assay: KSHV LANA DNA-binding disruption – biochemical, fluorescence polarization, cherry-picked samples, dose response (AID 504725); parameters: species or system Human gammaherpesvirus 8;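 note: fluorescence polarization of a labeled DNA duplex reporting LANA DNA binding; potency is for inhibitors that block LANA binding to the DNA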
# ORF 73, sequence (O40947 whole entry): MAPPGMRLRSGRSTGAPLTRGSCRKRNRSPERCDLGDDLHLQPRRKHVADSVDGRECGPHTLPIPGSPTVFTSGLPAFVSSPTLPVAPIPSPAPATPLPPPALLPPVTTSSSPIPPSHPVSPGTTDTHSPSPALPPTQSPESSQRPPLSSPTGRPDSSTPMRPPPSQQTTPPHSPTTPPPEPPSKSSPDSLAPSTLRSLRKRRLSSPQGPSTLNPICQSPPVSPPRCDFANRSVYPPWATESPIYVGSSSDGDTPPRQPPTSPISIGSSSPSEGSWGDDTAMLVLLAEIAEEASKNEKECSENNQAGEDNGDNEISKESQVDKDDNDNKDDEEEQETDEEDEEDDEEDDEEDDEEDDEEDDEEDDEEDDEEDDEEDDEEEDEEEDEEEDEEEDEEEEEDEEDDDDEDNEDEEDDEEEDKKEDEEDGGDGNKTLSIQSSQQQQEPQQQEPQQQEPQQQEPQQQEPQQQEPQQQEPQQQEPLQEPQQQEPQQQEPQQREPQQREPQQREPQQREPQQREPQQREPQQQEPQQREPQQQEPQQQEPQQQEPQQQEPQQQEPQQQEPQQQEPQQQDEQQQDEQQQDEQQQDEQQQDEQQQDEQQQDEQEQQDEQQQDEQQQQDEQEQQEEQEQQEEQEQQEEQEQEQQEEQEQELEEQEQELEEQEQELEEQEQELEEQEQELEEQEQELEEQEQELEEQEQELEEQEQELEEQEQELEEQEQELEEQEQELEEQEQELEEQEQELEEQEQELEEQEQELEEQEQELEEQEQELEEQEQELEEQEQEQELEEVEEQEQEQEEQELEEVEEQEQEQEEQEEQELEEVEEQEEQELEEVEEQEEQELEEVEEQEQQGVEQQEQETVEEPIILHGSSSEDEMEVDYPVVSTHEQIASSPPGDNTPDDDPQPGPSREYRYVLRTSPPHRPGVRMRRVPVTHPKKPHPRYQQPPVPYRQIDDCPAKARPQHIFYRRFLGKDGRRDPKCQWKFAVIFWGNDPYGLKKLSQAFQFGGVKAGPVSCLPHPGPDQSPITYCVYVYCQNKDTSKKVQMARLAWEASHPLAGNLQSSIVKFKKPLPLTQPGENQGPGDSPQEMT
# [25] = biological target: T4, Insulin-degrading enzyme; assay: cellular IDE activation of Abeta substrate cleavage – fluorescence polarization, HEK cells, dose response (AID 588439); format: functional, cell-based
# [26] = system: HEK293; assay: optical interference in Abeta FP readout, dose response, artefact control for IDE activator project, biochemical, fluorescence polarization (AID 588442); format: functional, cell-based; conditions: Homo sapiens
# [27] = viability loss in HepG2 liver cells – cell-based, ATP luminescence, cherry-pick, set 6, cytotoxicity control, dose response (AID 1053125); format: functional
# [28] = biological target: UDP-galactopyranose mutase (Mycobacterium tuberculosis, UniProt P9WIQ1); assay: Inhibitors of Mycobacterium tuberculosis UDP-galactopyranose mutase (UGM) enzyme Measured in Biochemical System Using Plate Reader - 2105-02_Inhibitor_Dose_CherryPick_Activity. [Related pubchem assays (depositor defined):AID504439]
# UDP-galactopyranose mutase, sequence (P9WIQ1 whole entry): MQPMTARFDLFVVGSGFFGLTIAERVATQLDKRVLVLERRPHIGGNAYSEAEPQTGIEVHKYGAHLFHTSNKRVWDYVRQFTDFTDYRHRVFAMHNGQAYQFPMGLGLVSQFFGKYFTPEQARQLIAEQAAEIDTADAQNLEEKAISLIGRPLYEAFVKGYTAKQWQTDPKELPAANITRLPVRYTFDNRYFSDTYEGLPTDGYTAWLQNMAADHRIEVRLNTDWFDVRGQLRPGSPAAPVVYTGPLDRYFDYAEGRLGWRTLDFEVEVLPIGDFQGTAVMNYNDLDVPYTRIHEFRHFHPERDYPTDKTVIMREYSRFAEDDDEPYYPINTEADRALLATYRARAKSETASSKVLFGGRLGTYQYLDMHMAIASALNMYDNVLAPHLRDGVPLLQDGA
# [29] = biological target: Phosphomannomutase 2 (Homo sapiens, UniProt O15305); assay: Counter screen SAR assay for PMM2 inhibitors via a fluorescence intensity assay. [Related pubchem assays (depositor defined):AID1545, AID1574]
# [30] = biological target: T5, Mannose-6-phosphate isomerase (Homo sapiens, UniProt P34949); assay: phosphomannose isomerase inhibition – biochemical, fluorescence intensity, confirmation (AID 1535)
# T5 sequence (P34949 whole entry): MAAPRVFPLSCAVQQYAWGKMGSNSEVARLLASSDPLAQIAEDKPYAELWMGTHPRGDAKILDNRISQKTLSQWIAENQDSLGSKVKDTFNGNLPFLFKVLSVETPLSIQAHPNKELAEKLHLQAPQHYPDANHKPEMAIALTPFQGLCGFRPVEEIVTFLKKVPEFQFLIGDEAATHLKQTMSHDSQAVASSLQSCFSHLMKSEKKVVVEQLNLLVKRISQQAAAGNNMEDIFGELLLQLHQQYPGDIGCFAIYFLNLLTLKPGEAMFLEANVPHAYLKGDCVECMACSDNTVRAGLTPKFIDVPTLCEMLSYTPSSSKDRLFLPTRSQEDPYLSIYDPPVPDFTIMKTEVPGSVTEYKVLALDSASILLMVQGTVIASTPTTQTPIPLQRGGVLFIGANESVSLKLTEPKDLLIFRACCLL
# [31] = biological target: Nuclear receptor ROR-gamma (Homo sapiens, UniProt P51449); assay: LXR, FXR and VP16 reporter activity, cell-based, luciferase reporter, ROR modulator project, late-stage follow-up, panel member RORG (AID 2117)
# Nuclear receptor ROR-gamma, sequence (P51449 whole entry): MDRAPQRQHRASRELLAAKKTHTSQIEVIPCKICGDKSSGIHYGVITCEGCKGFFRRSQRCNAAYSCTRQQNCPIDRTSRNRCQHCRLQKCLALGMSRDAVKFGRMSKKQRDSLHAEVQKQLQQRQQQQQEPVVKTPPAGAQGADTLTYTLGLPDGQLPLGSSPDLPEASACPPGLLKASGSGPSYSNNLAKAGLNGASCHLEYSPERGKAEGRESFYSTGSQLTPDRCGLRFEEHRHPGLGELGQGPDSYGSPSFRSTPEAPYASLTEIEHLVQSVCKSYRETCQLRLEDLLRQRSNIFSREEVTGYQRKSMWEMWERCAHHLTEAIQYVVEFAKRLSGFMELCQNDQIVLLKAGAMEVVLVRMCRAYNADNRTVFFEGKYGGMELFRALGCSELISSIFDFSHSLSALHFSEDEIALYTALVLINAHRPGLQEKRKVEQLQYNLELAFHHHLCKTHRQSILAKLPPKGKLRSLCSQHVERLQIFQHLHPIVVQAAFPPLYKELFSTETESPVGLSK
# [32] = biological target: Nuclear receptor ROR-alpha (Homo sapiens, UniProt P35398); assay: LXR, FXR and VP16 reporter activity, cell-based, luciferase reporter, ROR modulator project, late-stage follow-up, panel member RORA (AID 2117)
# [33] = biological target: Intestinal-type alkaline phosphatase (Homo sapiens, UniProt P09923); assay: inhibition of human intestinal alkaline phosphatase – biochemical, dose response (AID 488876); format: functional
# Intestinal-type alkaline phosphatase (Homo sapiens, UniProt P09923), sequence (P09923 whole entry): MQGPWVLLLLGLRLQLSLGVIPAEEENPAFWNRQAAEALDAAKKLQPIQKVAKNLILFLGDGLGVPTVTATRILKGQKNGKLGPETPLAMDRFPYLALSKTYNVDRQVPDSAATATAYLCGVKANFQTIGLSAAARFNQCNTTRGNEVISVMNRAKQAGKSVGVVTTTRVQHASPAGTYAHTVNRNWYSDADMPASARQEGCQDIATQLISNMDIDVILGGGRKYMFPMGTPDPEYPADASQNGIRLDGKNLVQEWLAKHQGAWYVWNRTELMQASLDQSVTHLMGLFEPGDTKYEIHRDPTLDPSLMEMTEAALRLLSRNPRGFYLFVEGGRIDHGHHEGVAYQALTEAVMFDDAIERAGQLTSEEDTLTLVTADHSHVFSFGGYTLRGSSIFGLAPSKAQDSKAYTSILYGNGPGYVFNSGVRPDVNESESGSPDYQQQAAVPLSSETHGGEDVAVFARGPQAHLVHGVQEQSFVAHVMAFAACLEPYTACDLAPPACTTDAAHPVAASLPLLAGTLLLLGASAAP
# [34] = biological target: Intestinal-type alkaline phosphatase (Mus musculus, UniProt P24822); assay: PubChem AID 488785; format: functional
# [35] = biological target: T6, Alkaline phosphatase, tissue-nonspecific isozyme (Homo sapiens, UniProt P05186); assay: TNAP enzyme inhibition by screening hits, dose response, selectivity assay for mouse IAP inhibitor project, biochemical, human TNAP, uHTS hits (AID 488906); format: functional
# T6 sequence (P05186 whole entry): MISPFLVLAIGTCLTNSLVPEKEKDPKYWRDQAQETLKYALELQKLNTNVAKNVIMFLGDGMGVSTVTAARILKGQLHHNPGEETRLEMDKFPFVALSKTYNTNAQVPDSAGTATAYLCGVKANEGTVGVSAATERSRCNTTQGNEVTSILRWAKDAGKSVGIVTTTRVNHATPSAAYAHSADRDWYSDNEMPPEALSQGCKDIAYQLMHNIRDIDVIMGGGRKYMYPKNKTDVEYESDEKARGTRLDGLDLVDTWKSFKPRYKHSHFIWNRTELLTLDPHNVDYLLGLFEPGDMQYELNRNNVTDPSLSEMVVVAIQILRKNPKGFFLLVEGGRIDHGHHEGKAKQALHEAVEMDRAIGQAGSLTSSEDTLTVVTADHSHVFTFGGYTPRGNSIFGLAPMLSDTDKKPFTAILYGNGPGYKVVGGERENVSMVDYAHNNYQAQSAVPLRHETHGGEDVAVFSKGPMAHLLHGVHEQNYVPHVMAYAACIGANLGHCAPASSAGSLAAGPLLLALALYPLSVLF
# Potassium voltage-gated channel subfamily KQT member 2, sequence (O88943 whole entry): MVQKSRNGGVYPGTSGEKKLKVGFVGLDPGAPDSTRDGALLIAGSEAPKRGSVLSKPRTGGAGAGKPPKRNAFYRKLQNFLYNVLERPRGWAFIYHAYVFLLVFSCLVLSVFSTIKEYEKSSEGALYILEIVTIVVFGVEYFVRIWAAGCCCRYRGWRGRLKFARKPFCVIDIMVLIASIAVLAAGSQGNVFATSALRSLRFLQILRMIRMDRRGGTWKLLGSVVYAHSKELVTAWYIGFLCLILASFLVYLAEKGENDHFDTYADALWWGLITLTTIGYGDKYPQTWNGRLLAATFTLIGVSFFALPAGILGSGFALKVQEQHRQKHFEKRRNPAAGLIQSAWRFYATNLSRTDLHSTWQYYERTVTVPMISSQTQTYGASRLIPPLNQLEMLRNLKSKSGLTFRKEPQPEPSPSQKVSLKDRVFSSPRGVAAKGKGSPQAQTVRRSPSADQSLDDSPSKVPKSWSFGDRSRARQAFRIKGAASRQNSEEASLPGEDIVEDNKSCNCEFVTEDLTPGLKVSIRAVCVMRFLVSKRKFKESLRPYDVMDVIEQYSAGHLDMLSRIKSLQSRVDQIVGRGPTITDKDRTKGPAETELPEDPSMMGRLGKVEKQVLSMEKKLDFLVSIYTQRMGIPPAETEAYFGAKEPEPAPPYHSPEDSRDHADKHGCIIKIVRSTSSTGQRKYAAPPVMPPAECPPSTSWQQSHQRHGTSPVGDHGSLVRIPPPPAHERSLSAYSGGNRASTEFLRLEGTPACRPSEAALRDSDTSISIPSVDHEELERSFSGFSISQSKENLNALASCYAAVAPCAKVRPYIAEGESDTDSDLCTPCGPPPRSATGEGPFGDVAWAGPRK
smiles,measurement,setting,value
COc1cccc(C(=O)NC(=S)Nc2ccccc2N2CCOCC2)c1,IC50,[1],6.01 µM (active)
same,AC50,[2],33.5 µM (active)
same,AC50,[3],20.1 µM (active)
O=C(Nc1nnc(SCc2ccc(F)cc2)s1)c1ccccn1,IC50,[4],> 32 µM (inactive)
same,EC50,[5],> 32 µM (inactive)
same,AC50,[6],3.56 µM (active)
same,EC50,[7],1.42 µM (active)
same,EC50,[8],4.97 µM (active)
same,AC50,[9],1.97 µM (active)
same,IC50,[10],> 32 µM
same,EC50,[11],> 31.5 µM (inactive)
same,EC50,[12],2.54 µM (active)
same,EC50,[13],0.663 µM (active)
same,EC50,[14],74.7 µM (active)
same,IC50,[15],4.45 µM (active)
same,EC50,[16],> 180 µM (inactive)
same,EC50,[17],> 32 µM (inactive)
O=C(CSc1nnc(NC(=O)CN2CCOCC2)s1)Nc1ccccc1,AC50,[18],47.5 µM (active)
Nc1ccc2ccc3cccc[n+]3c2c1.[O-][Cl+3]([O-])([O-])[O-],AC50,[19],27.3 µM (active)
same,IC50,[20],9.33 µM (active)
same,AC50,[21],21.4 µM (active)
same,EC50,[22],> 54.7 µM (inactive)
same,IC50,[23],> 89.2 µM (inactive)
same,AC50,[24],1.3 µM (active)
same,EC50,[25],> 54.7 µM (inactive)
same,EC50,[26],6.89 µM (active)
same,AC50,[27],> 52 µM (inactive)
same,AC50,[28],3.88 µM (active)
Nc1ccccc1/N=c1\ssnc1Cl,IC50,[29],> 100 µM (inactive)
same,IC50,[30],9.43 µM (active)
COc1cccc(S(=O)(=O)Nc2ccc(C(O)(C(F)(F)F)C(F)(F)F)cc2)c1,IC50,[31],7.23 µM (active)
same,IC50,[32],2.31 µM (active)
COC(=O)C/C=N/NC1=NC(=O)/C(=C/C(=O)O)S1,IC50,[33],1.74 µM (active)
same,IC50,[34],3.68 µM (active)
same,IC50,[35],> 100 µM (inactive)
